Data on one compound can be found in patent US11771707B2, “Pharmaceutical compositions and uses thereof” (SpineThera, priority 2016, dated 2023).

Data set [1] can be described thus: in vitro release of dexamethasone acetate from microspheres. Format: physicochemical. The procedure:
The microspheres, and compositions comprising those microspheres, of the various embodiments described herein are analyzed using USP methods known in the art to determine, among other things, the pH of the compositions, the in vitro release of API, and the impurities present. […] Without wishing to be bound by theory, it can be reasonably expected that dexamethasone acetate will release continuously over about 84 days in vitro, with about 20% of the drug released in 3 days, 50% in 25 days, and 90% in 60 days. It will be understood that the release profile may be adjusted by one or more of the following, including combinations: increasing or decreasing drug to polymer ratio; increasing or decreasing polymer molecular weight; increasing or decreasing particle size; increasing or decreasing polymer degradation time (by decreasing or increasing glycolic acid content); or increasing or decreasing hydrophilicity of microsphere surface.

The nature of data set [2]: in vitro release in 1% C-TAB buffer at pH 3.5. Format: physicochemical. An excerpt: Without wishing to be bound by theory, pharmaceutical compositions of the type described herein are not expected to elicit any significant or appreciable degree of inflammatory response or cause necrosis. Histological examination may reveal the microspheres to be localized and agglomerated within the epidural space at the site of injection with no evidence of the presence of the injection vehicle after about 2 days. Contents of the treated epidural pocket can be recovered by dissection. It can be reasonably expected that dexamethasone acetate will be released continuously over approximately 45 days under in vitro conditions of 1% C-TAB buffer at pH 3.5, with <20% of the drug released in 1 day, 30-60% in 7 days, 60-85% in 28 days and not less than 85% in 45 days, with complete microsphere polymer degradation in about 16 weeks/112 days.

For data set [3] the following is noted: brain; cited from earlier work.

`CC(=O)OCC(=O)[C@@]1(O)[C@H](C)C[C@H]2[C@@H]3CCC4=CC(=O)C=C[C@]4(C)[C@@]3(F)[C@@H](O)C[C@@]21C` [dexamethasone acetate, 9 alpha-fluoro-11-beta, 17-alpha, 21-trihydroxy-16 alpha-methylpregna-1,4-diene-3,20-dione 21-acetate]: the entries for the “period of continuous release” value in data set [1] and in data set [2] (1% C-TAB buffer pH 3.5) were “about 84 days” and “approximately 45 days”, respectively. Moreover, the drug released entry in data set [1] (in 3 days) is given as “about 20%”; in data set [1] (in 25 days), around 50%; in data set [1] (in 60 days), around 90%; in data set [2] (1% C-TAB buffer pH 3.5, in 1 day), below 20%; in data set [2] (1% C-TAB buffer pH 3.5, in 7 days), 30-60%; in data set [2] (1% C-TAB buffer pH 3.5, in 28 days), 60-85%. For the same compound, the drug released entry in data set [2] (1% C-TAB buffer pH 3.5, in 45 days) was “not less than 85%”. For the same compound, the “anti-inflammatory effect and tissue water content” value in data set [3] was “anti-inflammatory effect in the brain without reducing tissue water content”.
